According to paper PMC12649549, “Sequence Permutation Generated Lysine and Tryptophan-Rich Antimicrobial Peptides with Enhanced Therapeutic Index” (Antibiotics, 2025):
Read-outs that look alike come from different tables or passages of the source.

Assays:
[1] = test system: A. baumannii 14B00100 (Acinetobacter sp., BCRC number 14B0100)
Outline: (§1)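 Salt and pH tolerance was assessed by determining MICs in LYM medium containing 50–300 mM NaCl, 0.5–2.5 mM MgCl2, or at pH 4.5–6.5, alongside MH broth. The inoculum was 5 × 10^5 CFU/mL.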

[2] = test system: A. baumannii 14B0091 (Acinetobacter sp., BCRC number 14B0091)
Outline: as §1

[3] = test system: A. baumannii 14B0097 (Acinetobacter sp., BCRC number 14B0097)
Outline: as §1

[4] = test system: Escherichia coli (ATCC 25922)
Outline: as §1

S. aureus ATCC 25923 = test system: S. aureus ATCC 25923
Outline: as §1

S. aureus ATCC 33591 = test system: S. aureus ATCC 33591
Outline: as §1

S. aureus ATCC 33593 = test system: S. aureus ATCC 33593
Outline: as §1

S. aureus ATCC 6538 = test system: S. aureus ATCC 6538
Outline: as §1

[5] = LYM broth, 0 mM NaCl, 16 h, 37 °C
[6] = LYM broth, 50 mM NaCl, 16 h, 37 °C
[7] = LYM broth, 100 mM NaCl, 16 h, 37 °C
[8] = LYM broth, 200 mM (NaCl), 16 h, 37 °C
[9] = LYM broth, 300 mM (NaCl), 16 h, 37 °C
[10] = MH broth, 5 × 10^5 CFU/mL, 16 h, 37 °C, repeated three times

Ac-LAKKKKWRKWLKW-NH2 [Peptide W5K09]
MIC [1, 5]: 3.13 µg/mL | MIC ([1]; LYM broth, 0.5 mM MgCl2): 3.13 µg/mL | MIC ([1]; LYM broth, 1.5 mM MgCl2): 3.13 µg/mL | MIC ([1]; LYM broth, 2.5 mM MgCl2): 3.13 µg/mL | MIC [1, 6]: 3.13 µg/mL | MIC [1, 7]: 6.25 µg/mL | MIC [1, 8]: 25 µg/mL | MIC [1, 9]: >50 µg/mL | MIC ([1]; LYM broth, pH 4.5): 3.13 µg/mL | MIC ([1]; LYM broth, pH 5.5): 1.56 µg/mL | MIC ([1]; LYM broth, pH 6.5): 1.56 µg/mL | MIC [1, 10]: 50 µg/mL | MIC [2, 5]: 1.56 µg/mL | MIC ([2]; LYM broth, 0.5 mM MgCl2): 3.13 µg/mL | MIC ([2]; LYM broth, 1.5 mM MgCl2): 3.13 µg/mL | MIC ([2]; LYM broth, 2.5 mM MgCl2): 3.13 µg/mL | MIC [2, 6]: 6.25 µg/mL | MIC [2, 7]: 12.5 µg/mL | MIC [2, 8]: 50 µg/mL | MIC [2, 9]: >50 µg/mL | MIC ([2]; LYM broth, pH 4.5): 6.25 µg/mL | MIC ([2]; LYM broth, pH 5.5): 3.13 µg/mL | MIC ([2]; LYM broth, pH 6.5): 1.56 µg/mL | MIC [2, 10]: 50 µg/mL | MIC [3, 5]: 3.13 µg/mL | MIC ([3]; LYM broth, 0.5 mM MgCl2): 3.13 µg/mL | MIC ([3]; LYM broth, 1.5 mM MgCl2): 3.13 µg/mL | MIC ([3]; LYM broth, 2.5 mM MgCl2): 3.13 µg/mL | MIC [3, 6]: 3.13 µg/mL | MIC [3, 7]: 12.5 µg/mL | MIC [3, 8]: 50 µg/mL | MIC [3, 9]: >50 µg/mL | MIC ([3]; LYM broth, pH 4.5): 6.25 µg/mL | MIC ([3]; LYM broth, pH 5.5): 3.13 µg/mL | MIC ([3]; LYM broth, pH 6.5): 1.56 µg/mL | MIC [3, 10]: 25 µg/mL | MIC [4, 5]: 6.25 µg/mL | MIC ([4]; LYM broth, 0.5 mM MgCl2): 6.25 µg/mL | MIC ([4]; LYM broth, 1.5 mM MgCl2): 12.5 µg/mL | MIC ([4]; LYM broth, 2.5 mM MgCl2): 12.5 µg/mL | MIC [4, 6]: 12.5 µg/mL | MIC [4, 7]: 25 µg/mL | MIC [4, 8]: 50 µg/mL | MIC [4, 9]: >50 µg/mL | MIC ([4]; LYM broth, pH 4.5): 6.25 µg/mL | MIC ([4]; LYM broth, pH 5.5): 3.13 µg/mL | MIC ([4]; LYM broth, pH 6.5): 3.13 µg/mL | MIC [4, 10]: 25 µg/mL | MIC (S. aureus ATCC 25923; [5]): 3.13 µg/mL | MIC (S. aureus ATCC 25923; LYM broth, 0.5 mM MgCl2): 3.13 µg/mL | MIC (S. aureus ATCC 25923; LYM broth, 1.5 mM MgCl2): 6.25 µg/mL | MIC (S. aureus ATCC 25923; LYM broth, 2.5 mM MgCl2): 6.25 µg/mL | MIC (S. aureus ATCC 25923; [6]): 6.25 µg/mL | MIC (S. aureus ATCC 25923; [7]): 12.5 µg/mL | MIC (S. aureus ATCC 25923; [8]): 50 µg/mL | MIC (S. aureus ATCC 25923; [9]): >50 µg/mL | MIC (S. aureus ATCC 25923; LYM broth, pH 4.5): 6.25 µg/mL | MIC (S. aureus ATCC 25923; LYM broth, pH 5.5): 3.13 µg/mL | MIC (S. aureus ATCC 25923; LYM broth, pH 6.5): 1.56 µg/mL | MIC (S. aureus ATCC 25923; [10]): 25 µg/mL | MIC (S. aureus ATCC 33591; [5]): 25 µg/mL | MIC (S. aureus ATCC 33591; LYM broth, 0.5 mM MgCl2): 25 µg/mL | MIC (S. aureus ATCC 33591; LYM broth, 1.5 mM MgCl2): 50 µg/mL | MIC (S. aureus ATCC 33591; LYM broth, 2.5 mM MgCl2): 50 µg/mL | MIC (S. aureus ATCC 33591; [6]): 25 µg/mL | MIC (S. aureus ATCC 33591; [7]): 50 µg/mL | MIC (S. aureus ATCC 33591; [8]): >50 µg/mL | MIC (S. aureus ATCC 33591; [9]): >50 µg/mL | MIC (S. aureus ATCC 33591; LYM broth, pH 4.5): 25 µg/mL | MIC (S. aureus ATCC 33591; LYM broth, pH 5.5): 12.5 µg/mL | MIC (S. aureus ATCC 33591; LYM broth, pH 6.5): 12.5 µg/mL | MIC (S. aureus ATCC 33591; [10]): >50 µg/mL | MIC (S. aureus ATCC 33593; [5]): 25 µg/mL | MIC (S. aureus ATCC 33593; LYM broth, 0.5 mM MgCl2): 25 µg/mL | MIC (S. aureus ATCC 33593; LYM broth, 1.5 mM MgCl2): 25 µg/mL | MIC (S. aureus ATCC 33593; LYM broth, 2.5 mM MgCl2): 50 µg/mL | MIC (S. aureus ATCC 33593; [6]): 25 µg/mL | MIC (S. aureus ATCC 33593; [7]): 50 µg/mL | MIC (S. aureus ATCC 33593; [8]): >50 µg/mL | MIC (S. aureus ATCC 33593; [9]): >50 µg/mL | MIC (S. aureus ATCC 33593; LYM broth, pH 4.5): 25 µg/mL | MIC (S. aureus ATCC 33593; LYM broth, pH 5.5): 25 µg/mL | MIC (S. aureus ATCC 33593; LYM broth, pH 6.5): 12.5 µg/mL | MIC (S. aureus ATCC 33593; [10]): >50 µg/mL | MIC (S. aureus ATCC 6538; [5]): 6.25 µg/mL | MIC (S. aureus ATCC 6538; LYM broth, 0.5 mM MgCl2): 3.13 µg/mL | MIC (S. aureus ATCC 6538; LYM broth, 1.5 mM MgCl2): 3.13 µg/mL | MIC (S. aureus ATCC 6538; LYM broth, 2.5 mM MgCl2): 3.13 µg/mL | MIC (S. aureus ATCC 6538; [6]): 6.25 µg/mL | MIC (S. aureus ATCC 6538; [7]): 12.5 µg/mL | MIC (S. aureus ATCC 6538; [8]): 12.5 µg/mL | MIC (S. aureus ATCC 6538; [9]): 50 µg/mL | MIC (S. aureus ATCC 6538; LYM broth, pH 4.5): 6.25 µg/mL | MIC (S. aureus ATCC 6538; LYM broth, pH 5.5): 3.13 µg/mL | MIC (S. aureus ATCC 6538; LYM broth, pH 6.5): 3.13 µg/mL | MIC (S. aureus ATCC 6538; [10]): >50 µg/mL
